Laboratory results taken from paper PMC6009911, “Inhibition of human cytochromes P450 2A6 and 2A13 by flavonoids, acetylenic thiophenes and sesquiterpene lactones from Pluchea indica and Vernonia cinerea” (Journal of Enzyme Inhibition and Medicinal Chemistry, 2017).
Where two headings read alike, the source gives them in different places. Marks after values point to notes of the source that are not given here.

Assays:
[1] = target: T1, CYP2A13 (Homo sapiens, UniProt Q16696); test: Inhibition of CYP2A13-mediated coumarin 7-hydroxylation, enzymatic reconstitution assay; format: biochemical; details: for Ki: coumarin 0–40 µM
T1 construct: made in house
T1 sequence (Q16696 1-494): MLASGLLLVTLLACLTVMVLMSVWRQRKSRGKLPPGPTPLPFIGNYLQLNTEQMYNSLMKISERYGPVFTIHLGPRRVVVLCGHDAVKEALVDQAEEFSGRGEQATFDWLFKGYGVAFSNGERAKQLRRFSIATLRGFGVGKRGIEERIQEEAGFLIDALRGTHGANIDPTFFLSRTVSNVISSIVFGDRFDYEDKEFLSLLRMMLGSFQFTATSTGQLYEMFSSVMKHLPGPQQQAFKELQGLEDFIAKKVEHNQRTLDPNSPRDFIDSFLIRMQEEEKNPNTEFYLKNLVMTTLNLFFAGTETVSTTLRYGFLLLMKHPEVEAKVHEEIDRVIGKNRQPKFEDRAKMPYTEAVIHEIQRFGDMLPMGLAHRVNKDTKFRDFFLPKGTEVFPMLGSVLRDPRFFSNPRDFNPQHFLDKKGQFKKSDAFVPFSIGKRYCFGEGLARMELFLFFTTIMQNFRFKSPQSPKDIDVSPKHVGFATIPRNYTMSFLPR
Protocol: Inhibitory effect of plant extracts, fractions, subfractions and constituents was determined by inhibition assay on CYP2A6- and CYP2A13-mediated coumarin 7-hydroxylation. The recombinant human CYP2A6, CYP2A13 and rat NADPH-dependent cytochrome P450 oxidoreductase (CYPOR) proteins were expressed, purified, according to the methods previously described. […] Rate of 7-hydroxycoumarin product formation was measured on spectrofluorometer (Shimadzu, Kyoto, Japan) at λex = 355 nm, λem = 460 nm. Inhibition effects were determined by incubation with extracts, fractions or purified compounds with coumarin substrate in the reaction mixture and calculated as per cent relative inhibition compared with vehicle control reaction[20] and IC50 values were calculated using GraphPad Prism 5 (GraphPad Software Inc., La Jolla, CA).
(§1) MBI requires NADPH and time to generate reactive intermediate as inhibitor and ultimately inactivates the enzyme. MBI was evaluated by pre-incubation with each test inhibitor in the reaction at different time periods (0, 10, 20 and 30 min) in the presence of NADPH for time-dependent assay, as described. The apparent inactivation constants, KI and Kinact, were obtained from double reciprocal plots of kobs versus inhibitor concentrations by linear regression analysis on GraphPad Prism 5. Methoxsalen was used as a control mechanism-based inhibitor for time- and NADPH-dependent inhibition assays.

[2] = target: T2, CYP2A6 (Homo sapiens, UniProt P11509); set-up: made in house; details: ref Prasopthum et al., 2015, cited from earlier work; for Ki: coumarin 0–40 µM
T2 sequence (P11509 1-494): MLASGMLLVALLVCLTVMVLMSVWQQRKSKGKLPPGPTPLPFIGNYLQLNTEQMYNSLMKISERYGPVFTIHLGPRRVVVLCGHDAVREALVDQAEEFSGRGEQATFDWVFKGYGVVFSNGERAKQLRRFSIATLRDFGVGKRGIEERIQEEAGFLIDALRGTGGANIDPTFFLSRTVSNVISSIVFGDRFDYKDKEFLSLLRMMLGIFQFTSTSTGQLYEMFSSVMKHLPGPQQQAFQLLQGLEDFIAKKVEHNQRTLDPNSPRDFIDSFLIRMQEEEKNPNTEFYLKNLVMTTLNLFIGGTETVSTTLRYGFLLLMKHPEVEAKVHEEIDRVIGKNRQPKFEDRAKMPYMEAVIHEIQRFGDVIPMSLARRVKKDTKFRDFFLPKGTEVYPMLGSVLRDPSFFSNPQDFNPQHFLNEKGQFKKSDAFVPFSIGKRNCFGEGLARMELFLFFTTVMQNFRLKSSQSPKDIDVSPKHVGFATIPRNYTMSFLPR

[3] = target: T2, CYP2A6; details: cited from earlier work
[4] = target: T1, CYP2A13; test: Mechanism-based (time- and NADPH-dependent) inactivation of CYP2A13; format: biochemical; details: for kinact / KI (inactivation): pre-incubation 0-30 min with NADPH; for KI (inactivation): read-out: CYP2A13 KI (inactivation constant)
Protocol: as §1

[5] = target: T1, CYP2A13; test: Effects of trapping agents and dialysis on inactivation of CYP2A13; format: biochemical; details: CYP2A13 inhibition reaction mixture, probe coumarin; for activity at 10 µM: compound 10 µM; for activity at 20 µM: compound 20 µM
Protocol: as §1
To explore whether inactivation of CYP2As by thiophenes 9–11 and of CYP2A13 by hirsutinolides 5-8 could be reversed, the removal of reversible inhibitory compounds by dialysis and addition of trapping agents (GSH, semicarbazide, catalase or potassium ferricyanide) in the inhibition reaction mixture were performed. […] Similarly, mechanism-based inactivation of both CYP2A6 and CYP2A13 by thiophenes 9–11 could not be reversed (Table 3).

[6] = 10-min pre-incubation in the presence of NADPH, read-out: IC50 CYP2A13 Pre-incubation
[7] = coincubation, coumarin 2 µM, read-out: IC50 CYP2A13 Coincubation
[8] = read-out: CYP2A6 KI (inactivation constant), ref Prasopthum et al., 2015
[9] = 10-min pre-incubation in the presence of NADPH, read-out: IC50 CYP2A6 Pre-incubation
[10] = coincubation, coumarin 2 µM, read-out: IC50 CYP2A6 Coincubation
[11] = read-out: Per cent remaining activity, 70 μM K3Fe(CN)6
[12] = read-out: Per cent remaining activity, 2 mM GSH
[13] = read-out: Per cent remaining activity, 5 mM semicarbazide
[14] = read-out: Per cent remaining activity, 2000 U catalase
[15] = read-out: Per cent remaining activity, Dialysis (+) NADPH
[16] = read-out: Per cent remaining activity, Dialysis (−) NADPH
[17] = read-out: Per cent remaining activity, Pre-incubation
[18] = read-out: inactivation kinetic values (KI) against CYP2A6, literature values

O=c1cc(-c2ccc(O)cc2)oc2cc(O)cc(O)c12 [Apigenin 1, apigenin]
CYP2A13 Mode of inhibition [1]: Mixed type | IC50 [1, 6]: 0.04 ± 0.01 µM | IC50 [1, 7]: 0.05 ± 0.01 µM | Ki [1]: 0.014 ± 0.002 µM | CYP2A6 Mode of inhibition [2]: Mixed type^b

C=C(C)C(=O)OC1CC(C)C2(O)CCC(C)(/C=C3/OC(=O)C(COC(C)=O)=C31)O2 (stereo not drawn) [Hirsutinolide 5, 8α-(2-methylacryloyloxy)-hirsutinolide-13-O-acetate]
KI (inactivation) [3, 8]: 7.45 ± 0.62 µM | CYP2A6 Kinact ([3]; ref Prasopthum et al., 2015): 0.05 ± 0.01^b | CYP2A13 Mode of inhibition [1]: Mixed type | IC50 [1, 6]: 4.5 ± 0.18 µM | IC50 [1, 7]: 16.4 ± 3.1 µM | Ki [1]: 5.61 ± 0.99 µM | IC50 [2, 9]: 8.64 ± 0.37 µM | IC50 [2, 10]: 22.3 ± 2.5 µM | Ki [2]: 15.1 ± 2.1 µM | CYP2A6 Mode of inhibition [2]: Mixed type^b | kinact [4]: 0.0005 s⁻¹ | KI (inactivation) [4]: 0.92 ± 0.17 µM | activity at 10 µM [5, 11]: 24.1 ± 0.62% | activity at 10 µM [5, 12]: 28.2 ± 6.54% | activity at 10 µM [5, 13]: 24.4 ± 2.54% | activity at 10 µM [5, 14]: 20.3 ± 6.24% | activity at 10 µM [5, 15]: 18.6 ± 0.94% | activity at 10 µM [5, 16]: 86 ± 6.65% | activity at 10 µM [5, 17]: 29.3 ± 2.53%

C=C(CO)C(=O)OC1CC(C)C2(O)CCC(C)(/C=C3/OC(=O)C(COC(C)=O)=C31)O2 (stereo not drawn) [Hirsutinolide 7, 8α-(4-hydroxymethacryloyloxy)-hirsutinolide-13-O-acetate]
KI (inactivation) [3, 8]: 5.32 ± 0.29 µM | CYP2A6 Kinact ([3]; ref Prasopthum et al., 2015): 0.03 ± 0.01^b | CYP2A13 Mode of inhibition [1]: Mixed type | IC50 [1, 6]: 10.5 ± 0.49 µM | IC50 [1, 7]: 23.3 ± 1.35 µM | Ki [1]: 12.6 ± 1.26 µM | IC50 [2, 9]: 6.8 ± 0.77 µM | IC50 [2, 10]: 32.7 ± 2.2 µM | Ki [2]: 20.4 ± 5.4 µM | CYP2A6 Mode of inhibition [2]: Mixed type^b | kinact [4]: 0.001 s⁻¹ | KI (inactivation) [4]: 8.67 ± 0.15 µM | KI, CYP2A13 (in Figure 2) ([4]; time- and concentration-dependent inactivation): 8.67 ± 0.15 | activity at 10 µM [5, 11]: 21.4 ± 2.75% | activity at 10 µM [5, 12]: 18.3 ± 1.54% | activity at 10 µM [5, 13]: 26.6 ± 1.25% | activity at 10 µM [5, 14]: 20.9 ± 5.18% | activity at 10 µM [5, 15]: 21.4 ± 4.45% | activity at 10 µM [5, 16]: 93.3 ± 2.1% | activity at 10 µM [5, 17]: 22.2 ± 1.88%

CC(=O)OCC1=C2/C(=C\C3(C)CCC(O)(O3)C(C)CC2OC(=O)/C(C)=C/CO)OC1=O (stereo not drawn) [Hirsutinolide 8, 8α-(4-hydroxytigloyloxy)-hirsutinolide-13-O-acetate]
KI (inactivation) [3, 8]: 7.64 ± 1.24 µM | CYP2A6 Kinact ([3]; ref Prasopthum et al., 2015): 0.09 ± 0.01^b | CYP2A13 Mode of inhibition [1]: Mixed type | IC50 [1, 6]: 15.9 ± 0.67 µM | IC50 [1, 7]: 36.1 ± 1.39 µM | Ki [1]: 15.8 ± 2.5 µM | IC50 [2, 9]: 13.1 ± 2.4 µM | IC50 [2, 10]: 64.5 ± 5.8 µM | Ki [2]: 42.3 ± 8.4 µM | CYP2A6 Mode of inhibition [2]: Mixed type^b | kinact [4]: 0.00167 s⁻¹ | KI (inactivation) [4]: 8.62 ± 0.37 µM | activity at 20 µM [5, 11]: 21.8 ± 1.85% | activity at 20 µM [5, 12]: 25.8 ± 4.2% | activity at 20 µM [5, 13]: 20.7 ± 2.92% | activity at 20 µM [5, 14]: 19.4 ± 1.39% | activity at 20 µM [5, 15]: 18.4 ± 1.1% | activity at 20 µM [5, 16]: 92.4 ± 4.03% | activity at 20 µM [5, 17]: 23.9 ± 3.17%

O=c1c(O)c(-c2ccc(O)c(O)c2)oc2cc(O)cc(O)c12 [Quercetin 4, quercetin]
CYP2A13 Mode of inhibition [1]: Competitive | IC50 [1, 6]: 0.74 ± 0.02 µM | IC50 [1, 7]: 0.8 ± 0.01 µM | Ki [1]: 0.11 ± 0.01 µM | CYP2A6 Mode of inhibition [2]: Competitive^b

C/C=C(/C)C(=O)O[C@H]1Cc2cc3ccc(=O)oc3cc2OC1(C)C [decursinol angelate, reference compound]
KI (inactivation) [3, 18]: 2.42 µM

C#CCN(C)[C@H](C)Cc1ccccc1 [selegiline, reference compound]
KI (inactivation) [3, 18]: 15.6 µM
